According to patent US12595288B2 (priority 2020, dated 2026):
Like-named read-outs stand apart in the source and are kept apart here. Bridge positions count the residues as written; N and C are the ends. Ends that are not written are not given here. Peptide text beside a SMILES is read from it.

Legend:
Kallikrein 1 = Kallikrein 1 (Homo sapiens, UniProt P06870); experiment: biochemical
Proteinase A = Proteinase A (Bacillus licheniformis, UniProt P00780); experiment: biochemical; set-up: species or system Bacillus Iicheniformis
[1] = tested on: DDAVP-induced hyponatremia in Sprague-Dawley rats; conditions: rat, in vivo
Kallikrein 5 = Kallikrein 5 (Homo sapiens, UniProt Q9Y337); experiment: biochemical
Sequence of Kallikrein 5 (Q9Y337 67-293): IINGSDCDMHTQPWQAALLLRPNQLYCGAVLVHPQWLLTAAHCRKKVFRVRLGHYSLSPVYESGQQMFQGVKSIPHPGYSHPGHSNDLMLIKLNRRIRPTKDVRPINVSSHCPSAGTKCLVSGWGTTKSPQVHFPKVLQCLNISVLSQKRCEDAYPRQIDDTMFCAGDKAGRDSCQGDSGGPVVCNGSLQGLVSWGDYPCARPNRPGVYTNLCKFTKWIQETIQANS

Papain = Papain (Carica papaya, UniProt P00784); experiment: biochemical
Sequence of Papain (P00784 134-345): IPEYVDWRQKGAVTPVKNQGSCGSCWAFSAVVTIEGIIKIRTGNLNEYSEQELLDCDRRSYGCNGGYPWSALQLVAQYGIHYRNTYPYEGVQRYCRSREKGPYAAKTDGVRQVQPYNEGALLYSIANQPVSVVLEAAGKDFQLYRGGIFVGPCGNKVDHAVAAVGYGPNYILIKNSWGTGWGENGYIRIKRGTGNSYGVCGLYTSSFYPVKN

[2] = tested on: 156 other GPCRs, including V1aR, V1bR and OTR; conditions: cited from earlier work
Caspase 9 = Caspase 9 (Homo sapiens, UniProt P55211); experiment: biochemical
Sequence of Caspase 9 (P55211 131-416): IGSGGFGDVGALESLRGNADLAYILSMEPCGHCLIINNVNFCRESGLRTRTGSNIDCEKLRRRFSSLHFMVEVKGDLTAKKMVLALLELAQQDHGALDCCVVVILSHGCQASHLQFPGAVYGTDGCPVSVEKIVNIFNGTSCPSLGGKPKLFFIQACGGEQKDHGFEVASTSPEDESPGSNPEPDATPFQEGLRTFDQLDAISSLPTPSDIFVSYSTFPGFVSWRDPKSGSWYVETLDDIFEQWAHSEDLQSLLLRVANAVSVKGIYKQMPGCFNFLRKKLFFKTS

Chymotrypsin = Chymotrypsin (Bos taurus, UniProt P00766); experiment: biochemical; set-up: species or system Bovine
Chymase = Chymase (Homo sapiens, UniProt P23946); experiment: biochemical
Sequence of Chymase (P23946 22-247): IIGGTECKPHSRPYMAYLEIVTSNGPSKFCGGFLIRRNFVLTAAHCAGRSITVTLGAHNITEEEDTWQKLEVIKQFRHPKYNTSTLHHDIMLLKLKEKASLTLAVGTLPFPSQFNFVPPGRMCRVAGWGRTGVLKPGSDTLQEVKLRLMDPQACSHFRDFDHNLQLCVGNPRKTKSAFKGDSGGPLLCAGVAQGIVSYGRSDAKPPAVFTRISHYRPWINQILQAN

Caspase 5 = Caspase 5 (Homo sapiens, UniProt P51878); experiment: biochemical
Sequence of Caspase 5 (P51878 347-434): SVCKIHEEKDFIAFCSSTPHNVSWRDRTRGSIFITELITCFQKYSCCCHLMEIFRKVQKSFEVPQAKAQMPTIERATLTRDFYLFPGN
Sequence of Caspase 5 (P51878 138-327): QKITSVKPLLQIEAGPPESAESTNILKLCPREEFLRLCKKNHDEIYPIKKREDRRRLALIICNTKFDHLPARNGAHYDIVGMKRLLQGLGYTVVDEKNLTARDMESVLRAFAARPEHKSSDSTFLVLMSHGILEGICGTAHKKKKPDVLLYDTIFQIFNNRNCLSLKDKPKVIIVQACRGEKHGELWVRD

Caspase 10 = Caspase 10 (Homo sapiens, UniProt Q92851); experiment: biochemical
Sequence of Caspase 10 (Q92851-2 with tags, fused parts or gaps limits assumed): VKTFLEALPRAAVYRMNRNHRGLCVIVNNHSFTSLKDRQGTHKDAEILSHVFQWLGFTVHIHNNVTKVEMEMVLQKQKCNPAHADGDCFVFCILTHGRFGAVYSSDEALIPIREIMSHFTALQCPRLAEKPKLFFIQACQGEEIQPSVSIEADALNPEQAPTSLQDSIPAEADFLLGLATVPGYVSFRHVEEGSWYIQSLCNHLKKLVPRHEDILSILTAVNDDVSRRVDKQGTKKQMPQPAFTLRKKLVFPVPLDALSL

Trypsin = Trypsin (Bos taurus, UniProt P00760); experiment: biochemical; set-up: species or system Bovine
Sequence of Trypsin (P00760 24-246): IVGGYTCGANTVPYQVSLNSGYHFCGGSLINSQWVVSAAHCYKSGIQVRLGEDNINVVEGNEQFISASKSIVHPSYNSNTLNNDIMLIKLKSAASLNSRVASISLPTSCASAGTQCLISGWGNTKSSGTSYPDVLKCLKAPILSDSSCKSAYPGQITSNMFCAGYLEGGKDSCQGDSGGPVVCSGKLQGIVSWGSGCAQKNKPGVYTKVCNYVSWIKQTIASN

Caspase 1 = Caspase 1 (Homo sapiens, UniProt P29466); experiment: biochemical
Sequence of Caspase 1 (P29466 120-404): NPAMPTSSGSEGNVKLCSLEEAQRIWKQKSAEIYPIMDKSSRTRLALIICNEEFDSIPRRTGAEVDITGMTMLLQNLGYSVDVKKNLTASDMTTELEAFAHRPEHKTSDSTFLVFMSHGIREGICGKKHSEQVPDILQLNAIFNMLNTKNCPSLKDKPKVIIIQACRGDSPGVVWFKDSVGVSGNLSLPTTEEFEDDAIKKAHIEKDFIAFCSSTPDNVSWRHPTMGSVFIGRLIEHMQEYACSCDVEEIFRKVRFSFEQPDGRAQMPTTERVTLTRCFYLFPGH

Elastase = Elastase (Homo sapiens, UniProt P08246); experiment: biochemical
Sequence of Elastase (P08246 30-247): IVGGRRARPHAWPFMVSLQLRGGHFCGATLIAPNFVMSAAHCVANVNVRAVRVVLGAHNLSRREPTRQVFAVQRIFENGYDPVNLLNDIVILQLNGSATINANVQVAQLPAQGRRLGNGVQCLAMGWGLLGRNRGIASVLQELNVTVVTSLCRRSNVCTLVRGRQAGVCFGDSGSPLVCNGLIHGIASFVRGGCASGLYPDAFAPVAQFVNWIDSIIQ

Plasma Kallikrein = Plasma Kallikrein (Homo sapiens, UniProt P03952); experiment: biochemical
Sequence of Plasma Kallikrein (P03952 20-390): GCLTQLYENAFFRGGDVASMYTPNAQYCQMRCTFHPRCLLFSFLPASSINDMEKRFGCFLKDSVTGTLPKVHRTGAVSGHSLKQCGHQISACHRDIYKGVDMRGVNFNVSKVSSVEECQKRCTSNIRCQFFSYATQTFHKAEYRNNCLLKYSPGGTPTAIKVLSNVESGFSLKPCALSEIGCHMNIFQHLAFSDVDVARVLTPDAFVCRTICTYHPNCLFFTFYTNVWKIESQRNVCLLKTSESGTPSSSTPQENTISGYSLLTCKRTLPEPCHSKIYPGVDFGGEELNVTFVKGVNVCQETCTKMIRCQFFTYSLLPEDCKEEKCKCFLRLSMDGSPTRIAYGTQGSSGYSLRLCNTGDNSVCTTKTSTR
Sequence of Plasma Kallikrein (P03952 391-638): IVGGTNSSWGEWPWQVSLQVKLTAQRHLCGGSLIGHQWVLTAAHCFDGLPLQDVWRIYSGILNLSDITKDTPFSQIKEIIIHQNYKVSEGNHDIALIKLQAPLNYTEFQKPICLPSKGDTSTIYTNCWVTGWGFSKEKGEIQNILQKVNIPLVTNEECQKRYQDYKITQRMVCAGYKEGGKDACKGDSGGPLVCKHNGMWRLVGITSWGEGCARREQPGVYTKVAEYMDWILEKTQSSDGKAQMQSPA

Caspase 2 = Caspase 2 (Homo sapiens, UniProt P42575); experiment: biochemical
Sequence of Caspase 2 (P42575 167-333): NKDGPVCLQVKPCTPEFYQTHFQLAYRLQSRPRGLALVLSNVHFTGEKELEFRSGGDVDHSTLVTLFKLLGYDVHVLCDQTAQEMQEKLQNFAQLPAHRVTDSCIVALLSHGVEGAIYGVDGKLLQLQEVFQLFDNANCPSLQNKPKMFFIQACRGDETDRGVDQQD
Sequence of Caspase 2 (P42575 348-452): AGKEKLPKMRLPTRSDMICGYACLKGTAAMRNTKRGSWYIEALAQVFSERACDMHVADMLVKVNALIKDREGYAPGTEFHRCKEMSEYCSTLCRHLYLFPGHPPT

Cathepsin C = Cathepsin C (Homo sapiens, UniProt P53634); experiment: biochemical
Kallikrein 7 = Kallikrein 7 (Homo sapiens, UniProt P49862); experiment: biochemical
Sequence of Kallikrein 7 (P49862 30-252): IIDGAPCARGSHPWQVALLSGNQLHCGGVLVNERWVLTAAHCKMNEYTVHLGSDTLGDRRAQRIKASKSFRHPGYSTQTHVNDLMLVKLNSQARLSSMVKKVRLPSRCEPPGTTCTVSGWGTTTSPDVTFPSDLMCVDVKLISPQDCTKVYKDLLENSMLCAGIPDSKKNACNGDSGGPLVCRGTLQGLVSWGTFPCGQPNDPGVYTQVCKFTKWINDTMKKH

Matriptase 2 = Matriptase 2 (Homo sapiens, UniProt Q8IU80); experiment: biochemical
Caspase 6 = Caspase 6 (Homo sapiens, UniProt P55212); experiment: biochemical
Sequence of Caspase 6 (P55212 24-293 limits assumed): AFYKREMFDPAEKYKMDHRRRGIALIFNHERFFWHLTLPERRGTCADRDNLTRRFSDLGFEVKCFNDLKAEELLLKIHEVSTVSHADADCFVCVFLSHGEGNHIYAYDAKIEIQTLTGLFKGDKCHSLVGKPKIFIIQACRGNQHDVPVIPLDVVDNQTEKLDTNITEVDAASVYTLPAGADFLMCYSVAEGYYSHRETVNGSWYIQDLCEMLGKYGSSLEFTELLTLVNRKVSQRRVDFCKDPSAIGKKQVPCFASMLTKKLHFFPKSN

[3] = molecular target: human Arginine Vasopressin Receptor 2A (AVPR2A) (Homo sapiens, UniProt P30518); experiment: cell-based
Cathepsin G = Cathepsin G (Homo sapiens, UniProt P08311); experiment: biochemical
Sequence of Cathepsin G (P08311 21-244): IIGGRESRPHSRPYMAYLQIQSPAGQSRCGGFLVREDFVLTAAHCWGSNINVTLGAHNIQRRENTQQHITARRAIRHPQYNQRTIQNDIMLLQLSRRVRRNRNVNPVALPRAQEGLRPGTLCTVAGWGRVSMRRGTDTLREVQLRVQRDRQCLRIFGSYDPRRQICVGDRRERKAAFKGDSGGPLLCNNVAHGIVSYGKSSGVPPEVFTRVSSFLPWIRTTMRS

Tryptase b2 = Tryptase b2 (Homo sapiens, UniProt P20231); experiment: biochemical
Sequence of Tryptase b2 (P20231 31-275): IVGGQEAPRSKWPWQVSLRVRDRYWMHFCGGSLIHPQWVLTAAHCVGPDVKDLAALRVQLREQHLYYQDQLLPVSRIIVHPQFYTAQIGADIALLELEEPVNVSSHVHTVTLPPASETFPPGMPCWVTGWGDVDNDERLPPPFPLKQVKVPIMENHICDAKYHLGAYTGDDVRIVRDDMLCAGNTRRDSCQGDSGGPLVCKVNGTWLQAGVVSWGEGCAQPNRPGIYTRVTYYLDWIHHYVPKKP

Caspase 11 = Caspase 11 (Mus musculus, UniProt P70343); experiment: biochemical
Sequence of Caspase 11 (P70343 102-373): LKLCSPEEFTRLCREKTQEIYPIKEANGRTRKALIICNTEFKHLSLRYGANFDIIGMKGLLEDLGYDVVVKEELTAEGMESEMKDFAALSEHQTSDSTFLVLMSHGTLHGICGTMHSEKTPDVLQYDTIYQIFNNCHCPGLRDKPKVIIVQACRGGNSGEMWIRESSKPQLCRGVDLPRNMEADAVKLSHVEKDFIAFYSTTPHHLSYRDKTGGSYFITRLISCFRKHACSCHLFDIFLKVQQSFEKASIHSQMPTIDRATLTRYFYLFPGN

Tryptase g1 = assay type: biochemical, Human; conditions: read-out: Compound IC50
[4] = molecular target: human vasopressin-2 receptor (V2R) (Homo sapiens, UniProt P30518); experiment: biochemical; assay type: binding
Sequence of human vasopressin-2 receptor (V2R) (P30518 whole entry): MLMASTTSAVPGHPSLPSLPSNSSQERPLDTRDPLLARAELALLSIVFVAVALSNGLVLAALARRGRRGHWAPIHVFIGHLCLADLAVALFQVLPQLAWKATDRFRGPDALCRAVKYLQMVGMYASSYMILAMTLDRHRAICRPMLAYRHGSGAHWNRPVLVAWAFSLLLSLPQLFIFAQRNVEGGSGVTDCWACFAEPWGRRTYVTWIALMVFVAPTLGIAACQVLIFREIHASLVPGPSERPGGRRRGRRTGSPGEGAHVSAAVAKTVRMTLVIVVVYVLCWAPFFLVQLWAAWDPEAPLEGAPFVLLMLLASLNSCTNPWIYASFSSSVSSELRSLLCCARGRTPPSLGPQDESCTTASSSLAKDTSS

Cathepsin L = Cathepsin L (Homo sapiens, UniProt P07711); assay type: biochemical; conditions: read-out: Compound IC50
Cathepsin S = Cathepsin S (Homo sapiens, UniProt P25774); assay type: biochemical; conditions: read-out: Compound IC50
Cathepsin H = Cathepsin H (Homo sapiens, UniProt P09668); assay type: biochemical; conditions: read-out: Compound IC50
Cathepsin V = Cathepsin V (Homo sapiens, UniProt O60911); assay type: biochemical; conditions: read-out: Compound IC50
Cathepsin B = Cathepsin B (Homo sapiens, UniProt P07858); assay type: biochemical; conditions: read-out: Compound IC50
V2R versus V1a = conditions: cited from earlier work
Urokinase = Urokinase (Homo sapiens, UniProt P00749); assay type: biochemical; conditions: read-out: Compound IC50
Kallikrein 12 = Kallikrein 12 (Homo sapiens, UniProt Q9UKR0); assay type: biochemical; conditions: read-out: Compound IC50
Kallikrein 14 = Kallikrein 14 (Homo sapiens, UniProt Q9P0G3); assay type: biochemical; conditions: read-out: Compound IC50
Thrombin A = Thrombin A (Homo sapiens, UniProt P00734); assay type: biochemical; conditions: read-out: Compound IC50
FXa = FXa (Homo sapiens, UniProt P00742); assay type: biochemical; conditions: read-out: Compound IC50
Plasmin = Plasmin (Homo sapiens, UniProt P00747); assay type: biochemical; conditions: read-out: Compound IC50
Kallikrein 13 = Kallikrein 13 (Homo sapiens, UniProt Q9UKR3); assay type: biochemical; conditions: read-out: Compound IC50
Caspase 7 = Caspase 7 (Homo sapiens, UniProt P55210); assay type: biochemical; conditions: read-out: Compound IC50
Caspase 4 = Caspase 4 (Homo sapiens, UniProt P49662); assay type: biochemical; conditions: read-out: Compound IC50
Caspase 8 = Caspase 8 (Homo sapiens, UniProt Q14790); assay type: biochemical; conditions: read-out: Compound IC50

`CC(=O)N[C@@H](CC(C)C)C(=O)N[C@@H](CC(C)C)C(=O)N[C@H](C=O)CCCNC(=N)N` [Leupeptin] showed an IC50 (Kallikrein 1) of 296 nM and an IC50 (Proteinase A) of 31500 nM.

With `Cc1ccccc1C(=O)Nc1ccc(C(=O)N2CCCC(O)c3cc(Cl)ccc32)c(C)c1` (stereo not drawn) [tolvaptan] the “plasmatic sodium concentration versus vehicle-treated group” value [1] was “significantly different from values on the vehicle-treated group”.

For `CC[C@H](C)[C@@H]1NC(=O)[C@H]([C@@H](C)O)NC(=O)[C@H](CO)NC(=O)[C@H](Cc2ccccc2)NC(=O)[C@H](CCCNC(=N)N)NC(=O)[C@H](CC(N)=O)NC(=O)[C@H](C)NC(=O)[C@H](CC(N)=O)NC(=O)CNC(=O)[C@H](CCCCN)NC(=O)[C@@H]2CSSC[C@@H]3NC(=O)[C@@H]4CCCN4C(=O)CNC(=O)[C@@H]4CCCN4C(=O)[C@H](CCCCN)NC(=O)[C@H](C(C)C)NC(=O)[C@@H]4CCCN4C(=O)[C@H](CC(C)C)NC(=O)[C@H](CC(N)=O)NC(=O)[C@@H](NC(=O)[C@H](Cc4ccccc4)NC(=O)[C@H](CO)NC(=O)[C@@H]4CCCN4C(=O)[C@@H](N)CCCNC(=N)N)CSSC[C@@H](C(=O)N[C@H](C(=O)NCC(=O)O)C(C)C)NC(=O)[C@H]([C@@H](C)O)NC(=O)[C@H](CCCNC(=N)N)NC(=O)[C@H](CCCNC(=N)N)NC(=O)[C@H](CSSC[C@H](NC(=O)[C@H](CCCCN)NC(=O)[C@H](CC(N)=O)NC(=O)[C@H]([C@@H](C)O)NC(=O)[C@H](CCCCN)NC(=O)[C@H](CCC(N)=O)NC(=O)[C@H](CO)NC(=O)[C@H](Cc4ccc(O)cc4)NC(=O)[C@H](Cc4ccc(O)cc4)NC(=O)[C@H](Cc4ccccc4)NC(=O)[C@H](C)NC(=O)[C@H](CO)NC(=O)[C@H](Cc4ccccc4)NC(=O)[C@H](Cc4ccccc4)NC(=O)CNC(=O)[C@H](CC(N)=O)NC3=O)C(=O)N[C@@H](Cc3c[nH]cn3)C(=O)N[C@@H](CO)C(=O)N[C@@H](Cc3ccccc3)C(=O)N[C@@H]([C@@H](C)O)C(=O)N[C@@H](Cc3ccc(O)cc3)C(=O)NCC(=O)NCC(=O)N2)NC(=O)[C@H](CCCCN)NC(=O)[C@H](CCC(=O)O)NC1=O` [WT MQ1 peptide, mambaquaretin], the IC50 (Kallikrein 5) is listed as 5770 nM, the IC50 (Papain) is listed as 17600 nM and the “affinity for 156 other GPCRs” value [2] is listed as “no affinity at μM concentrations”. The IC50 (Caspase 9) was 8940 nM, the IC50 (Chymotrypsin) was 2740 nM and the IC50 (Chymase) was 18200 nM. The IC50 (Caspase 5) was > 50000 nM, the IC50 (Caspase 10) was 9330 nM and the IC50 (Trypsin) was 3690 nM. For the same compound, the IC50 (Caspase 1) was 37100 nM, the IC50 (Elastase) was > 50000 nM and the IC50 (Plasma Kallikrein) was 3890 nM. The IC50 (Caspase 2) was 42500 nM, the IC50 (Cathepsin C) was 45900 nM and the IC50 (Kallikrein 7) was 3650 nM. The IC50 (Matriptase 2) was 116 nM, the IC50 (Caspase 6) was > 50000 nM and the IC50 [3] was 192 nM. It also gave an IC50 (Cathepsin G) of 8540 nM, an IC50 (Tryptase b2) of 3630 nM and an IC50 (Caspase 11) of 14000 nM. The IC50 (Tryptase g1) was > 50000 nM.

`CC(C)C[C@H](NC(=O)[C@@H](NC(=O)N[C@@H](Cc1ccccc1)C(=O)O)[C@@H]1CCN=C(N)N1)C(=O)N[C@H](C=O)Cc1ccccc1` [Chymostatin] showed an IC50 (Chymase) of 19.9 nM and an IC50 (Cathepsin G) of 236 nM.

“RPSFCNLPVKPGPCNGFFSAFYYSQKTNKCHSFTYGGCKGAANRFSTIEKCRRTCVG (disulfide 5-55, 14-38, 30-51) [N41A]” gave a Ki [4] of 8.49 nM.

`CC(C)C[C@H](NC(=O)[C@H]1O[C@@H]1C(=O)O)C(=O)NCCCCN=C(N)N` [E64] showed an IC50 (Papain; read-out: Compound IC50) of 0.118 nM, an IC50 (Cathepsin L) of 1.96 nM and an IC50 (Cathepsin S) of 5.43 nM. For the same compound, the IC50 (Cathepsin H) was 67.1 nM, the IC50 (Cathepsin V) was 19.7 nM and the IC50 (Cathepsin C; read-out: Compound IC50) was 590 nM. The IC50 (Cathepsin B) was 5.1 nM.

In the case of `CCOc1ccc2c(c1)C1(CCC(OCCN3CCOCC3)CC1)C(=O)N2S(=O)(=O)c1ccc(C(=O)NC(C)(C)C)cc1OC` (stereo not drawn) [Satavaptan], the V2/Vla selectivity index (V2R versus V1a) is listed as 112.

For “Gabexate mesylate [Gabexate mesylate (GM)]”, the IC50 (Kallikrein 5; read-out: Compound IC50) was 697 nM, the IC50 (Urokinase) was 614 nM and the IC50 (Kallikrein 12) was 65.4 nM. For the same compound, the IC50 (Trypsin; read-out: Compound IC50) was 11.2 nM, the IC50 (Kallikrein 14) was 672 nM and the IC50 (Elastase; read-out: Compound IC50) was 216 nM. The IC50 (Thrombin A) was 3160 nM, the IC50 (Plasma Kallikrein; read-out: Compound IC50) was 30.3 nM and the IC50 (Kallikrein 7; read-out: Compound IC50) was 46500 nM. For the same compound, the IC50 (Matriptase 2; read-out: Compound IC50) was 315 nM, the IC50 (FXa) was 4470 nM and the IC50 (Plasmin) was 344 nM. It also gave an IC50 (Tryptase b2; read-out: Compound IC50) of 19.8 nM, an IC50 (Kallikrein 13) of 11800 nM and an IC50 (Tryptase g1) of 10.1 nM.

Work on “RPSFCNLPVKPGPCNGFFSAFYYSQKTNKCHSFTYGGCKGNANAFSTLEKCRRTCVG (disulfide 5-55, 14-38, 30-51) [R44A]” yielded a Ki [4] of 13.3 nM.

In the case of `CC(=O)N[C@@H](CC(=O)O)C(=O)N[C@@H](CCC(=O)O)C(=O)N[C@H](C(=O)N[C@H](C=O)CC(=O)O)C(C)C` [DEVD-CHO], the IC50 (Caspase 7) is reported as 5.11 nM and the IC50 (Caspase 6; read-out: Compound IC50) is reported as 26.5 nM.

With “RPSFCNLPVKPGPCNGFFSAFYYSQKTNKCHSFTYGGCKGNANEFSTLEKCRRTCVG (disulfide 5-55, 14-38, 30-51) [R44E]” the Ki [4] was 99.3 nM.

For “RPSFCNLPVAPGPCNGFFSAFYYSQKTNKCHSFTYGGCKGNANRFSTLEKCRRTCVG (disulfide 5-55, 14-38, 30-51) [K10A]”, the Ki [4] was 9.38 nM.

“RPSFCNLPVEPGPCNGFFSAFYYSQKTNKCHSFTYGGCKGNANRFSTLEKCRRTCVG (disulfide 5-55, 14-38, 30-51) [K10E]” gave a Ki [4] of 337 nM.

In the case of `Cc1nc2c([nH]1)-c1ccccc1N(C(=O)c1ccc(NC(=O)c3ccccc3-c3ccccc3)cc1)CC2` [Conivaptan], the V2/Vla selectivity index (V2R versus V1a) is given as 0.15.

`CC[C@H](C)[C@H](NC(C)=O)C(=O)N[C@@H](CCC(=O)O)C(=O)N[C@H](C(=O)N[C@H](C=O)CC(=O)O)[C@@H](C)O` [IETD-CHO] (Ac-IETD-aldehyde) gave an IC50 (Caspase 9; read-out: Compound IC50) of 51.5 nM, an IC50 (Caspase 5; read-out: Compound IC50) of 38.3 nM and an IC50 (Caspase 10; read-out: Compound IC50) of 28.3 nM. The IC50 (Caspase 1; read-out: Compound IC50) was 89.3 nM, the IC50 (Caspase 4) was 2180 nM and the IC50 (Caspase 2; read-out: Compound IC50) was 646 nM. For the same compound, the IC50 (Caspase 11; read-out: Compound IC50) was 934 nM and the IC50 (Caspase 8) was 2.52 nM.
